Measured values as given in ChEMBL document CHEMBL3739322, “Novel oxime-bearing coumarin derivatives act as potent Nrf2/ARE activators in vitro and in mouse model” (Eur J Med Chem, 2015).

What was measured:
[1] = molecular target: T1, Nuclear factor erythroid 2-related factor 2 (Homo sapiens) (UniProt Q16236); assay: Activation of Nrf2 in human HSC3-ARE9 cells assessed as increase of ARE-mediated luciferase expression at 50 uM after 24 hrs relative to control; format: cell-based
T1 sequence (whole entry): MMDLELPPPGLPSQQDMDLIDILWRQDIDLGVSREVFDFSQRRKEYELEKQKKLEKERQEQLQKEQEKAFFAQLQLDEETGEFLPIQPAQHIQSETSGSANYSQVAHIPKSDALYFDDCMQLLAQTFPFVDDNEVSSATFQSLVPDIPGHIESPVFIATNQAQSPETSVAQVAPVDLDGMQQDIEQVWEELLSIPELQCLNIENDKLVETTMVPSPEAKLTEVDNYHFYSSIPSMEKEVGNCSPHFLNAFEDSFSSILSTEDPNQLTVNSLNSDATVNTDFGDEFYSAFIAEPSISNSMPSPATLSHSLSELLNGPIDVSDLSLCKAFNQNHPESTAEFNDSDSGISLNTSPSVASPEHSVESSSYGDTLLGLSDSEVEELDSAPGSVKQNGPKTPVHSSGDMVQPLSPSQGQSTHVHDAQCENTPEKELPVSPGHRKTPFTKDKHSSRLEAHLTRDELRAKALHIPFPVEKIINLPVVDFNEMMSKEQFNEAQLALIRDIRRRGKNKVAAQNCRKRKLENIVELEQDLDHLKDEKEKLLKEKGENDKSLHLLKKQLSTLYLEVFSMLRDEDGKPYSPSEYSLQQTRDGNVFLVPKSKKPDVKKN

[2] = Antioxidant activity assessed as DPPH radical scavenging activity; format: physicochemical
[3] = molecular target: T1, Nuclear factor erythroid 2-related factor 2 (Homo sapiens); assay: Activation of Nrf2 in human HSC3-ARE9 cells assessed as increase of ARE-mediated luciferase expression after 24 hrs; format: cell-based
[4] = Cytotoxicity against human HSC3 cells after 24 hrs by MTT assay; format: cell-based; conditions: hsc-3, 24 h
[5] = molecular target: T1, Nuclear factor erythroid 2-related factor 2 (Homo sapiens); assay: Activation of Nrf2 in human HSC3-ARE9 cells assessed as increase of ARE-mediated GCLC mRNA expression at 50 uM after 24 hrs by RT-PCR analysis relative to control; format: cell-based
[6] = molecular target: T1, Nuclear factor erythroid 2-related factor 2 (Homo sapiens); assay: Activation of Nrf2 in human HSC3-ARE9 cells assessed as increase of ARE-mediated Prx1 mRNA expression at 50 uM after 24 hrs by RT-PCR analysis relative to control; format: cell-based
[7] = molecular target: T1, Nuclear factor erythroid 2-related factor 2 (Homo sapiens); assay: Activation of Nrf2 in human HSC3-ARE9 cells assessed as increase of ARE-mediated AKR1C1 mRNA expression at 50 uM after 24 hrs by RT-PCR analysis relative to control; format: cell-based

Question: For `O=c1cc(OC/C(=N\O)c2ccc3ccccc3c2)c2ccccc2o1`, which fold change (FC) [1] is on record?
Answer: 1.43

Question: Which fold change (FC) [1] does the source give for `COc1ccc(/C(COc2cc3ccccc3oc2=O)=N/O)cc1` here?
Answer: 1.49

Question: For `O=C(COc1cc(=O)oc2ccccc12)Nc1ccc(-c2ccccc2)cc1`, which fold change (FC) [1] is on record?
Answer: 1.17

Question: With `O=C(COc1ccc2oc(=O)ccc2c1)Nc1ccc2ccccc2c1` as the compound, how does the fold change (FC) [1] read?
Answer: 0.91

Question: Which EC50 [2] does the source give for `O=c1oc2ccccc2cc1OC/C(=N\O)c1ccc(F)cc1` here?
Answer: > 400 µM

Question: What about the Activity [3] of the same compound?
Answer: Dose-dependent effect

Question: And the Activity [4]?
Answer: Non-toxic

Question: And the fold change (FC) [1]?
Answer: 3.25

Question: With `COc1ccc(NC(=O)COc2ccc3ccc(=O)oc3c2)cc1` as the compound, how does the fold change (FC) [1] read?
Answer: 0.98

Question: For `O=C(COc1ccc2ccc(=O)oc2c1)Nc1ccccc1`, which fold change (FC) [1] is on record?
Answer: 2.27

Question: For `O=C(COc1ccc2oc(=O)ccc2c1)c1ccc2ccccc2c1`, which fold change (FC) [1] is on record?
Answer: 0.61

Question: For `O=c1ccc2ccc(OC/C(=N\O)c3ccc4ccccc4c3)cc2o1`, which fold change (FC) [1] is on record?
Answer: 1.04

Question: Which fold change (FC) [1] does the source give for `O=C(COc1ccc2ccc(=O)oc2c1)Nc1ccc(-c2ccccc2)cc1` here?
Answer: 1.09

Question: For `C/C(COc1cc2ccccc2oc1=O)=N\O`, which fold change (FC) [1] is on record?
Answer: 1.63

Question: For `O=C(COc1cc(=O)oc2ccccc12)c1ccc2ccccc2c1`, which fold change (FC) [1] is on record?
Answer: 1.52

Question: For `O=C(COc1cc2ccccc2oc1=O)Nc1ccc(F)cc1`, which fold change (FC) [1] is on record?
Answer: 1.34

Question: Which results are given for `O=c1cc(O)c2ccccc2o1` [4-HYDROXYCOUMARINS]?
Answer: EC50 [2]: 351 µM; fold change (FC) [1]: 0.84

Question: For `COc1ccc(C(=O)COc2cc(=O)oc3ccccc23)cc1`, which fold change (FC) [1] is on record?
Answer: 1.36

Question: Which fold change (FC) [1] does the source give for `COc1ccc(NC(=O)COc2cc(=O)oc3ccccc23)cc1` here?
Answer: 1.34

Question: Which fold change (FC) [1] does the source give for `COc1ccc(/C(COc2ccc3ccc(=O)oc3c2)=N/O)cc1` here?
Answer: 1.28

Question: Which fold change (FC) [1] does the source give for `O=C(COc1ccc2oc(=O)ccc2c1)Nc1ccccc1` here?
Answer: 2.08

Question: For `O=C(COc1ccc2ccc(=O)oc2c1)c1ccc(F)cc1`, which fold change (FC) [1] is on record?
Answer: 1.14

Question: Which fold change (FC) [1] does the source give for `CC(=O)COc1ccc2oc(=O)ccc2c1` here?
Answer: 1.03

Question: With `O=c1cc(OC/C(=N\O)c2ccc(-c3ccccc3)cc2)c2ccccc2o1` as the compound, how does the fold change (FC) [1] read?
Answer: 1.32

Question: With `O=C(COc1ccc2ccc(=O)oc2c1)Nc1ccc2ccccc2c1` as the compound, how does the fold change (FC) [1] read?
Answer: 1.06

Question: For `O=C(COc1cc2ccccc2oc1=O)Nc1ccc2ccccc2c1`, which fold change (FC) [1] is on record?
Answer: 1.13

Question: With `CC(=O)COc1cc(=O)oc2ccccc12` as the compound, how does the fold change (FC) [1] read?
Answer: 0.79

Question: Which fold change (FC) [1] does the source give for `O=C(COc1ccc2ccc(=O)oc2c1)c1ccc(-c2ccccc2)cc1` here?
Answer: 0.85

Question: Which fold change (FC) [1] does the source give for `O=C(COc1ccc2oc(=O)ccc2c1)Nc1ccc(-c2ccccc2)cc1` here?
Answer: 0.95

Question: With `CC(C)(C)c1cc(O)ccc1O` [E319] as the compound, how does the EC50 [2] read?
Answer: 57.5 µM

Question: And the fold change (FC) [5]?
Answer: 2

Question: What about the fold change (FC) [6] of the same compound?
Answer: 1.1

Question: And the fold change (FC) [7]?
Answer: 2.3

Question: What about the fold change (FC) [1] of the same compound?
Answer: 2.01

Question: With `O=c1oc2ccccc2cc1OC/C(=N\O)c1ccc(-c2ccccc2)cc1` as the compound, how does the fold change (FC) [1] read?
Answer: 1.44

Question: With `O=c1ccc2ccc(OC/C(=N\O)c3ccc(F)cc3)cc2o1` as the compound, how does the fold change (FC) [1] read?
Answer: 1.32

Question: With `O=C(COc1cc(=O)oc2ccccc12)Nc1ccc2ccccc2c1` as the compound, how does the fold change (FC) [1] read?
Answer: 1.37

Question: What does the source list for `O=c1oc2ccccc2cc1O` [3-HYDROXYCOUMARIN]?
Answer: EC50 [2]: 65.8 µM; fold change (FC) [1]: 0.94

Question: Which fold change (FC) [1] does the source give for `O=C(COc1cc(=O)oc2ccccc12)c1ccccc1` here?
Answer: 1.98

Question: For `O=C(COc1cc2ccccc2oc1=O)c1ccc2ccccc2c1`, which fold change (FC) [1] is on record?
Answer: 0.98

Question: With `CC(=O)COc1ccc2ccc(=O)oc2c1` as the compound, how does the fold change (FC) [1] read?
Answer: 1.09

Question: For `O=C(COc1ccc2ccc(=O)oc2c1)c1ccc2ccccc2c1`, which fold change (FC) [1] is on record?
Answer: 0.17

Question: With `O=c1cc(OC/C(=N\O)c2ccccc2)c2ccccc2o1` as the compound, how does the fold change (FC) [1] read?
Answer: 1.35

Question: Which fold change (FC) [1] does the source give for `O=C(COc1ccc2oc(=O)ccc2c1)c1ccccc1` here?
Answer: 2.54

Question: Which fold change (FC) [1] does the source give for `O=C(COc1cc(=O)oc2ccccc12)c1ccc(-c2ccccc2)cc1` here?
Answer: 0.42

Question: Which EC50 [2] does the source give for `O=c1ccc2cc(OC/C(=N\O)c3ccccc3)ccc2o1` here?
Answer: > 400 µM

Question: And the Activity [3]?
Answer: Dose-dependent effect

Question: What about the Activity [4] of the same compound?
Answer: Non-toxic

Question: And the fold change (FC) [1]?
Answer: 3.02

Question: Which fold change (FC) [1] does the source give for `C/C(COc1ccc2oc(=O)ccc2c1)=N\O` here?
Answer: 1.64

Question: For `COc1ccc(C(=O)COc2ccc3oc(=O)ccc3c2)cc1`, which fold change (FC) [1] is on record?
Answer: 0.82

Question: For `O=c1ccc2cc(O)ccc2o1` [6-HYDROXYCOUMARIN], which EC50 [2] is on record?
Answer: > 400 µM

Question: What about the fold change (FC) [1] of the same compound?
Answer: 0.99

Question: For `O=C(COc1cc2ccccc2oc1=O)c1ccc(-c2ccccc2)cc1`, which fold change (FC) [1] is on record?
Answer: 0.98

Question: With `COc1ccc(C(=O)COc2cc3ccccc3oc2=O)cc1` as the compound, how does the fold change (FC) [1] read?
Answer: 1.54

Question: Which EC50 [2] does the source give for `O=c1ccc2ccc(O)cc2o1` [UMBELLIFERONE] here?
Answer: > 400 µM

Question: And the fold change (FC) [1]?
Answer: 0.98

Question: Which fold change (FC) [1] does the source give for `COc1ccc(NC(=O)COc2cc3ccccc3oc2=O)cc1` here?
Answer: 0.95

Question: For `COc1ccc(/C(COc2cc(=O)oc3ccccc23)=N/O)cc1`, which fold change (FC) [1] is on record?
Answer: 1.76

Question: For `O=C(COc1cc2ccccc2oc1=O)c1ccc(F)cc1`, which fold change (FC) [1] is on record?
Answer: 1.64

Question: Which fold change (FC) [1] does the source give for `C/C(COc1ccc2ccc(=O)oc2c1)=N\O` here?
Answer: 1.68

Question: For `O=c1ccc2cc(OC/C(=N\O)c3ccc(-c4ccccc4)cc3)ccc2o1`, which fold change (FC) [1] is on record?
Answer: 1.5

Question: With `O=C(COc1ccc2oc(=O)ccc2c1)c1ccc(F)cc1` as the compound, how does the fold change (FC) [1] read?
Answer: 1.58

Question: Which fold change (FC) [1] does the source give for `O=c1ccc2cc(OC/C(=N\O)c3ccc4ccccc4c3)ccc2o1` here?
Answer: 1.46

Question: For `O=c1ccc2cc(OC/C(=N\O)c3ccc(F)cc3)ccc2o1`, which fold change (FC) [1] is on record?
Answer: 2.32

Question: With `O=c1oc2ccccc2cc1OC/C(=N\O)c1ccc2ccccc2c1` as the compound, how does the fold change (FC) [1] read?
Answer: 1.31

Question: Which fold change (FC) [1] does the source give for `O=C(COc1cc(=O)oc2ccccc12)Nc1ccc(F)cc1` here?
Answer: 1.11

Question: Which fold change (FC) [1] does the source give for `O=c1ccc2ccc(OC/C(=N\O)c3ccc(-c4ccccc4)cc3)cc2o1` here?
Answer: 0.9

Question: With `COc1ccc(C(=O)COc2ccc3ccc(=O)oc3c2)cc1` as the compound, how does the fold change (FC) [1] read?
Answer: 1.07

Question: Which fold change (FC) [1] does the source give for `COc1ccc(/C(COc2ccc3oc(=O)ccc3c2)=N/O)cc1` here?
Answer: 1.33

Question: With `O=C(COc1ccc2oc(=O)ccc2c1)c1ccc(-c2ccccc2)cc1` as the compound, how does the fold change (FC) [1] read?
Answer: 0.85

Question: With `O=C(COc1ccc2ccc(=O)oc2c1)Nc1ccc(F)cc1` as the compound, how does the fold change (FC) [1] read?
Answer: 1.16

Question: With `O=C(COc1ccc2oc(=O)ccc2c1)Nc1ccc(F)cc1` as the compound, how does the fold change (FC) [1] read?
Answer: 0.95

Question: Which fold change (FC) [1] does the source give for `COc1ccc(NC(=O)COc2ccc3oc(=O)ccc3c2)cc1` here?
Answer: 0.89

Question: For `O=c1cc(OC/C(=N\O)c2ccc(F)cc2)c2ccccc2o1`, which fold change (FC) [1] is on record?
Answer: 1.67

Question: For `CC(=O)COc1cc2ccccc2oc1=O`, which fold change (FC) [1] is on record?
Answer: 0.92

Question: With `O=C(COc1cc(=O)oc2ccccc12)c1ccc(F)cc1` as the compound, how does the fold change (FC) [1] read?
Answer: 1.26

Question: Which fold change (FC) [1] does the source give for `O=C(COc1cc2ccccc2oc1=O)Nc1ccccc1` here?
Answer: 2.51

Question: Which fold change (FC) [1] does the source give for `O=C(COc1ccc2ccc(=O)oc2c1)c1ccccc1` here?
Answer: 1.93

Question: Which fold change (FC) [1] does the source give for `O=C(COc1cc2ccccc2oc1=O)Nc1ccc(-c2ccccc2)cc1` here?
Answer: 1.22

Question: For `O=c1ccc2ccc(OC/C(=N\O)c3ccccc3)cc2o1`, which fold change (FC) [1] is on record?
Answer: 2.16

Question: Which fold change (FC) [1] does the source give for `C/C(COc1cc(=O)oc2ccccc12)=N\O` here?
Answer: 1.37

Question: Which fold change (FC) [1] does the source give for `O=C(COc1cc2ccccc2oc1=O)c1ccccc1` here?
Answer: 1.72

Question: With `O=C(COc1cc(=O)oc2ccccc12)Nc1ccccc1` as the compound, how does the fold change (FC) [1] read?
Answer: 1.06
